Experimental data: ChEMBL document CHEMBL1155104, “Gallic acid-based indanone derivatives as anticancer agents” (Bioorg Med Chem Lett, 2008)

Assays:
[1] = Cytotoxicity against human KB403 cells after 24 hrs by MTT assay; type: functional, cell-based; conditions: KB403, 24 h
WRL68 = experiment: Cytotoxicity against human WRL68 cells after 24 hrs by MTT assay; type: functional, cell-based; conditions: WRL68, 24 h
Caco-2 = experiment: Cytotoxicity against human CaCO2 cells after 24 hrs by MTT assay; type: functional, cell-based; conditions: Caco-2, 24 h
HepG2 = experiment: Cytotoxicity against human HEPG2 cells after 24 hrs by MTT assay; type: functional, cell-based; conditions: HepG2, 24 h
MCF7 = experiment: Cytotoxicity against human MCF7 cells after 24 hrs by MTT assay; type: functional, cell-based; conditions: MCF7, 24 h
[2] = Toxicity in human erythrocytes assessed as osmotic hemolysis at 258 uM; type: cell-based; conditions: erythrocyte
[3] = Toxicity in human erythrocytes assessed as osmotic hemolysis; type: cell-based; conditions: erythrocyte

Which results are given for COc1cc(C2CC(O)c3cc(OC)c(OC)c(OC)c32)cc(OC)c1OC (centres undefined)?
IC50 [1]: 192 µM; IC50 (WRL68): 192 µM; IC50 (Caco-2): 6.4 µM; IC50 (HepG2): 102 µM; IC50 (MCF7): 244 µM

For CC(=O)O[C@H]1C(=O)[C@@]2(C)[C@H]([C@H](OC(=O)c3ccccc3)[C@]3(O)C[C@H](OC(=O)[C@H](O)[C@@H](NC(=O)c4ccccc4)c4ccccc4)C(C)=C1C3(C)C)[C@]1(OC(C)=O)CO[C@@H]1C[C@@H]2O [PACLITAXEL], which IC50 [1] is on record?
The IC50 was 0.001 µM.

What about the IC50 (WRL68) of the same molecule?
Its IC50 is 0.004 µM.

And the IC50 (Caco-2)?
The IC50 was 0.008 µM.

What about the IC50 (HepG2) of the same molecule?
Its IC50 is 0.009 µM.

And the IC50 (MCF7)?
The IC50 was 0.006 µM.

Which IC50 [1] does the source give for COc1cc([C@@H]2c3cc4c(cc3[C@H](O)[C@H]3COC(=O)[C@H]23)OCO4)cc(OC)c1OC [PODOFILOX] here?
The IC50 was 20.5 µM.

And the IC50 (WRL68)?
Its IC50 is 4.8 µM.

And the IC50 (Caco-2)?
The IC50 was 0.002 µM.

And the IC50 (HepG2)?
The IC50 was 4.8 µM.

And the IC50 (MCF7)?
Its IC50 is 8.5 µM.

For COc1cccc(C2CC(=O)c3cc(OC)c(OC)c(OC)c32)c1 (centres undefined), which IC50 [1] is on record?
The IC50 was at least 250 µM.

What about the IC50 (WRL68) of the same molecule?
The IC50 was at least 250 µM.

And the IC50 (Caco-2)?
The IC50 was at least 250 µM.

What about the IC50 (HepG2) of the same molecule?
Its IC50 is at least 250 µM.

And the IC50 (MCF7)?
The IC50 was at least 250 µM.

Which IC50 [1] does the source give for COc1cc(C2=C(O)C(=O)c3cc(OC)c(OC)c(OC)c32)cc(OC)c1OC here?
Its IC50 is at least 250 µM.

And the IC50 (WRL68)?
Its IC50 is 124 µM.

And the IC50 (Caco-2)?
Its IC50 is at least 250 µM.

And the IC50 (HepG2)?
The IC50 was 74.6 µM.

And the IC50 (MCF7)?
The IC50 was at least 250 µM.

Which IC50 [1] does the source give for COc1cc2c(cc1OC)C(c1cc(OC)c(OC)c(OC)c1)CC2=O (centres undefined) here?
Its IC50 is 140 µM.

And the IC50 (WRL68)?
The IC50 was 196 µM.

And the IC50 (Caco-2)?
The IC50 was 140 µM.

And the IC50 (HepG2)?
Its IC50 is 112 µM.

What about the IC50 (MCF7) of the same molecule?
Its IC50 is at least 250 µM.

What does the source list for COc1cc2c(c(OC)c1OC)-c1c(oc3c(OC)c(OC)c(OC)cc13)C2=O?
IC50 [1]: ≥ 250 µM; IC50 (WRL68): 62.5 µM; IC50 (Caco-2): 112 µM; IC50 (HepG2): ≥ 250 µM; IC50 (MCF7): 50 µM

With COc1cc(C2CC(=O)c3cc(OC)c(OC)c(OC)c32)cc(OC)c1OC (centres undefined) as the molecule, how does the IC50 [1] read?
The IC50 was 10.3 µM.

And the IC50 (WRL68)?
The IC50 was 12.8 µM.

And the IC50 (Caco-2)?
The IC50 was at least 250 µM.

And the IC50 (HepG2)?
Its IC50 is 9 µM.

What about the IC50 (MCF7) of the same molecule?
The IC50 was 2.2 µM.

What about the Activity [2] of the same molecule?
The Activity was “Non-toxic”.

For COc1cc2c(c(OC)c1OC)C(c1ccccc1)CC2=O (centres undefined), which IC50 [1] is on record?
Its IC50 is 0.84 µM.

And the IC50 (WRL68)?
The IC50 was at least 250 µM.

What about the IC50 (Caco-2) of the same molecule?
Its IC50 is at least 250 µM.

What about the IC50 (HepG2) of the same molecule?
The IC50 was 188 µM.

What about the IC50 (MCF7) of the same molecule?
Its IC50 is at least 250 µM.

And the Activity [3]?
Its Activity is “Toxic”.

Which IC50 [1] does the source give for COc1ccc(C2CC(=O)c3cc(OC)c(OC)c(OC)c32)c(OC)c1OC (centres undefined) here?
Its IC50 is 1.54 µM.

And the IC50 (WRL68)?
Its IC50 is 0.023 µM.

What about the IC50 (Caco-2) of the same molecule?
The IC50 was 206 µM.

What about the IC50 (HepG2) of the same molecule?
Its IC50 is at least 250 µM.

And the IC50 (MCF7)?
Its IC50 is at least 250 µM.

And the Activity [3]?
The Activity was “Toxic”.

For COc1cc(C2CCc3cc(OC)c(OC)c(OC)c32)cc(OC)c1OC (centres undefined), which IC50 [1] is on record?
Its IC50 is at least 250 µM.

What about the IC50 (WRL68) of the same molecule?
The IC50 was 154 µM.

What about the IC50 (Caco-2) of the same molecule?
Its IC50 is 115 µM.

And the IC50 (HepG2)?
Its IC50 is 89.7 µM.

What about the IC50 (MCF7) of the same molecule?
Its IC50 is at least 250 µM.

Which results are given for COc1cc(C2C/C(=N\O)c3cc(OC)c(OC)c(OC)c32)cc(OC)c1OC (centres undefined)?
IC50 [1]: 136 µM; IC50 (WRL68): 223 µM; IC50 (Caco-2): 49.6 µM; IC50 (HepG2): 124 µM; IC50 (MCF7): ≥ 250 µM

With COc1cc(OC)c(C2CC(=O)c3cc(OC)c(OC)c(OC)c32)c(OC)c1 (centres undefined) as the molecule, how does the IC50 [1] read?
The IC50 was 12.9 µM.

What about the IC50 (WRL68) of the same molecule?
Its IC50 is 0.022 µM.

And the IC50 (Caco-2)?
Its IC50 is 226 µM.

And the IC50 (HepG2)?
Its IC50 is 1.49 µM.

And the IC50 (MCF7)?
Its IC50 is 211 µM.

And the Activity [3]?
Its Activity is “Toxic”.
